Data as given in patent publication US20150176037A1, “OXIDOREDUCTASE REACTION CONTROL AND USE THEREOF” (Amano Enzyme Inc., priority 2012, published 2015).

Molecular target: T1, formate dehydrogenase (FDH) (Candida boidinii, UniProt O13437)
T1 sequence (O13437 1-364): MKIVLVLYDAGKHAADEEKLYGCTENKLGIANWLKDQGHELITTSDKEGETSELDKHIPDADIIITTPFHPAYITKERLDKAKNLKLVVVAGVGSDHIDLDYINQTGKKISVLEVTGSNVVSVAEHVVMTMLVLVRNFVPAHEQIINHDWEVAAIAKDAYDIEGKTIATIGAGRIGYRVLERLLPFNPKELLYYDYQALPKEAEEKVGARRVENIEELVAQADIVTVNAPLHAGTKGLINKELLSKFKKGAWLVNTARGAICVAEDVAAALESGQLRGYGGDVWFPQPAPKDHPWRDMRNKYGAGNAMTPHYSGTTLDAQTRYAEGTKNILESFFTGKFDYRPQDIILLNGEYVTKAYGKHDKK
Assay: FDH reaction system using methylviologen as artificial coenzyme
Assay type: biochemical
Conditions: 5.0 units FDH
Description: 2.2 mM of formic acid, 4.4 mM of methylviologen (MV^2+ was used), and 5.0 units of FDH were incubated, and NADH was detected (lower row, left).
The enzyme catalyzing the reaction converting formic acid into carbon dioxide, “formate dehydrogenase (FDH)” also catalyzes the reaction converting carbon dioxide into formic acid. It should be noted that the speed of the conversion reaction from carbon dioxide into formic acid (reverse reaction) is about one sixth the speed of the conversion reaction from formic acid into carbon dioxide (forward reaction) (FIG. 1). Suppression of the forward reaction is important for the formation of formic acid from carbon dioxide using this enzyme. The original coenzyme of FDH is NAD^+, but methylviologen may be used as an artificial coenzyme (mediator) (Non-Patent Literature 2). However, in the past report, only the interaction between FDH and methylviologen is electrochemically measured, so that no essential finding about the interaction is obtained. Therefore, we studied the characteristics of the […] reaction system using methylviologen as an artificial coenzyme in detail. […] Methylviologen is advantageous also in that it is readily photoreduced using a photosensitive molecule. In contrast, photoreduction of the original coenzyme, NAD^+ is not easy.

Compound: C[n+]1ccc(-c2cc[n+](C)cc2)cc1 [methylviologen, 1,1′-dimethyl-4,4′-bipyridinium dichloride]
- conversion reaction from carbon dioxide into formic acid (reverse reaction) (2.2 mM CO2, 4.4 mM MV^2+ reduced): only proceeds
- conversion reaction from formic acid into carbon dioxide (forward reaction) (2.2 mM formic acid, 4.4 mM MV^2+): does not proceed at all
